± gives the expanded uncertainty stated by the source.
Experiments:
[1] = 298.15 K; 101.33 kPa; Liquid; Pycnometric method
[2] = refractive index (Na D-line) (dimensionless); settings: 298.15 K; 101.33 kPa; Liquid; Standard Abbe refractometry

Compound CCCCCCC [heptane] has a mass density [1] of 679.53 ± 0.65 kg/m3 and a refractive index [2] of 1.3852 ± 0.0008.
